Reference: US6756377B2, “Compounds and their use” (Biovitrum AB, priority 2000, dated 2004)
Like-named read-outs stand apart in the source and are kept apart here.

How the values were obtained:
[1] = cited from earlier work
5-HT2c receptor [2] = molecular target: T1, 5-HT2c receptor (Mus musculus, UniProt P34968); conditions: mice that express the normal 5-HT2c receptor; cited from earlier work
T1 construct: mice that express the normal 5-HT2c receptor; host or cells: mice (in vivo)
T1 sequence (P34968 33-459): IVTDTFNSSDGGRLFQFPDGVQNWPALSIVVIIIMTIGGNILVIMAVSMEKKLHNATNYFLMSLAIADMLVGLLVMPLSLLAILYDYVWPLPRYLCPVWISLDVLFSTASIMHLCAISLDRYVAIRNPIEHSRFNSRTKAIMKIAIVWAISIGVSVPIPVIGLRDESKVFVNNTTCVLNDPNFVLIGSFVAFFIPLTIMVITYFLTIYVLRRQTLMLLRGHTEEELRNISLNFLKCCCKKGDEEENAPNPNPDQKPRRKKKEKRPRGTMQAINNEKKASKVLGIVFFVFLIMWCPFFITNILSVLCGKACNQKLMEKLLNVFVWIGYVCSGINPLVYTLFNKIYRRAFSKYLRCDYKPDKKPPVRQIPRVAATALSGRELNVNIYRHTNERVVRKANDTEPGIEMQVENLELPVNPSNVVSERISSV

5-HT2c receptor [3] = conditions: mice expressing the mutated inactive form of the 5-HT2c receptor; cited from earlier work
[4] = molecular target: T2, human 5-HT2c receptor protein (Homo sapiens, UniProt P28335); test: 5-HT2c receptor affinity assay (displacement of 3H-labelled 5-HT, Scintillation Proximity Assay); conditions: membranes of transfected HEK293 cells; 3H-5-HT displacement; non-specific binding 5 μM mianserin
T2 construct: expressed in transfected cells; host or cells: HEK293 (membranes)
T2 sequence (P28335 33-458): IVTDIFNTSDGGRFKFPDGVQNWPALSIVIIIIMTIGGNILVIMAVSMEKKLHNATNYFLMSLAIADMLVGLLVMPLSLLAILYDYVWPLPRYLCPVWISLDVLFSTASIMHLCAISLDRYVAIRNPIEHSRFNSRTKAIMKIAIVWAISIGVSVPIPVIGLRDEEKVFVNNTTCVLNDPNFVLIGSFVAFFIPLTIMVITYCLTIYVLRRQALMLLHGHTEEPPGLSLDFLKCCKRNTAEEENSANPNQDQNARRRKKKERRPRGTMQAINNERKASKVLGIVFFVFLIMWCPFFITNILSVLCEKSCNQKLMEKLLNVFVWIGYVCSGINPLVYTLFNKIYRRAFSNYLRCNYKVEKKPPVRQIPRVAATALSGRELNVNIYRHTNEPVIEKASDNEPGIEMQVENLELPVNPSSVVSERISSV
Procedure: The 5-HT2c receptor affinity of compounds in the Examples was determined in competition experiments, where the ability of each compound in serial dilution to displace ^3H-labelled 5-HT, bound to membranes prepared from a transfected HEK293 cell line stably expressing the human 5-HT2c receptor protein, was monitored by Scintillation Proximity Assay technology. Non-specific binding was defined using 5 μM mianserin. Typically, the 5HT2c receptor affinity values (Ki, nM) were in the range of 1 nM to 1500 nM, preferably 1 nM to 100 nM.

Clc1cccc(N2CCNCC2)c1 [mCPP, m-chlorophenylpiperazine]
body weight ([1]; obese subjects, after 2 weeks of treatment): slight but sustained reduction in body weight
food intake (5-HT2c receptor [2]): reduces food intake
food intake (5-HT2c receptor [3]): lacks activity

c1cc(CN2CCOCC2)cc(OCCOc2nccnc2N2CCNCC2)c1 [Example 1, 2-(1-Piperazinyl)-3-{2-[3-(4-morpholinylmethyl)phenoxy]ethoxy}pyrazine]
Ki [4]: 18 nM

CNCCC(Oc1ccc(C(F)(F)F)cc1)c1ccccc1 (stereo not shown) [fluoxetine]
body weight ([1]; controlled clinical studies): weight reduction

CC(C)NCc1cccc(OCCOc2nccnc2N2CCNCC2)c1 [Example 5, 2-(1-Piperazinyl)-3-{2-[3-{(isopropylamino)methyl}phenoxy]ethoxy}pyrazine]
Ki [4]: 3 nM

CCN[C@@H](C)Cc1cccc(C(F)(F)F)c1 [dexfenflurarnine]
body weight ([1]; controlled clinical studies): weight reduction
